Reference: patent US20190247405A1, “TREATMENT OF SMA” (Hoffmann-La Roche Inc., priority 2016, published 2019)
“Also recorded” adds a separate entry of the source.

Assays:
[1] = system: MFM D1+D2 score in SMA patients; test: Longitudinal kinetic-pharmacodynamic (KPD) exposure-response analysis and simulations on Phase 2 PK and MFM D1+D2 data; design: species or system human
Text: The pharmacokinetics (PK) and efficacy data from the herewith referred clinical trial study were used to investigate the relationship between olesoxime pharmacokinetic exposure (i.e., average trough concentration Caverage) and the primary efficacy outcome (i.e.: MFM D1+D2 score). A longitudinal kinetic-pharmacodynamic (KPD) approach was applied [Jacqmin et al., 2007]. In the placebo group the progression of the disease over time was best described by a linear function (slope of −0.0201 unit/week with relative standard error of 27%). […] (Data on file).
Simulations were conducted by using this exposure-response function and its associated uncertainty.

[2] = system: SMNF7/F7; NSE-Cre mice (SMA transgenic mice); test: Survival and body weight in transgenic mouse model of SMA; type: in vivo; details: for mice still alive at 40 days: Conclusion section (vehicle 15%); for animals still alive after 40 days: Results section (vehicle 15%)
Text: Deletion of the smn gene is lethal in mice (early embryonic lethality). Mutant mice with deletion of smn exon7 restricted to neurons (NSE-Cre; SMNF7/F7, referred to here as SMA transgenic mice) are viable and display a phenotype similar to that described in human patients suffering from the severe types of spinal muscular atrophy (Frugier T., Tiziano F D et al. Hum Mol Genet. 2000, 9, 849-858.)
A pre-clinical study has been carried out on transgenic mouse model of SMA in the severe modelSMN^F7/F7; NSE-Cre with Olesoxime to test for signs of possible efficacy to treats SMA patients.
Endpoint scores included survival (daily observation), body weight (animals were weighed 3 times/week).
Olesoxime (powder) was mixed with Cremophore EL (SIGMA C5135), absolute ethanol (CARLO ERBA RPE 414571) and DMSO (ALLDRICH 27685-5) ([…], respective % of the final volume). After complete dissolution, PBS (phosphate buffered saline) was added (85% of the final volume). Solutions were prepared in volumes sufficient for 3 days; vehicle placebo consisted in the same mixture of excipients without the active principle. Daily treatment (subcutaneous injections, 10 ml/kg) started from P21 to death. Effected mice were killed by cervical dislocation when they became unable to feed, according to ethical considerations or around 45 days for control mice. Experiments were performed blind.
“log Rank”, also called “Mantel-Haenszel” was the statistic test being used to compare the two survival curves. It is a type “Khi2” test that was already available in the library “survival” from R. software (http://lib.stat.cmu.edu/R/CRAN).
The test was applied simultaneously on the 3 groups of mice and for all five stages.
All the mice which died before day 26 were removed from the study. There were 8 in total.

[3] = system: patients aged 3-25 years with type 2 or non-ambulatory type 3 SMA; test: Randomized, double-blind, placebo-controlled Phase 2 study (NCT01302600) of olesoxime; type: in vivo, human; details: 100 mg/ml oral liquid suspension, 10 mg/kg per day
Description: A randomized double blind, placebo-controlled, phase 2 study on olesoxime (NTC01302600) was performed on SMA type II and type III patients aged 3 to 25 years.
A randomized, double-blind, placebo-controlled, Phase 2 study (NCT01302600) was performed in 22 secondary care centres in Belgium, France, Germany, Italy, Netherlands, Poland and the UK. Safety and efficacy of olesoxime (TRO19622/RG6083) were assessed in patients aged 3-25 years with type 2 or non-ambulatory type 3 SMA confirmed by weakness and hypotonia, genetic diagnosis, Motor Function Measure (MFM) domains 1 and 2 (D1+D2) relative score (percentage of the maximum sum)≥15% and Hammersmith Functional Motor Scale (HFMS) score at baseline≥3 (non-ambulant≤38). […]
MFM is a validated quantitative scale allowing measurement of the functional motor abilities of an individual affected by a neuromuscular disease, regardless of the diagnosis and the extent of motor deficiencies (Vuillerot et al. Arch Phys Med Rehabil 2013; 94(8): 1555-61). […] Each item is scored on a 4-point (0-3) Likert type scale, where each option contains a clear indication of the level to which the patient has achieved the functional task and higher scores reflect better functional ability. […]
A total score, in addition to the three dimensions, can be calculated, with all scores expressed as a percentage of the maximum possible sum of the item scores. […]

Compound: CC(C)CCC[C@@H](C)[C@H]1CC[C@H]2[C@@H]3CCC4=CC(=NO)CC[C@]4(C)[C@H]3CC[C@]12C [olesoxime, Cholest-4-en-3-one oxime]
- slope of linear exposure-response relationship (average trough concentration vs MFM D1+D2 score) ([1]; KPD model, relative standard error of 36%): 0.291 unit/ng/mL
- plateau of effect in exposure-response relationship ([1]; at the dose of 10 mg): did not reach a plateau
- mice still alive at 40 days ([2]; 10 mg/kg daily s.c.): 26%
- animals still alive after 40 days ([2]; 10 mg/kg daily s.c.): 25%
- mice still alive at 40 days ([2]; 30 mg/kg daily s.c.): 50%
- animals still alive after 40 days ([2]; 30 mg/kg daily s.c.): 45%
- life span / survival ([2]; 30 mg/kg/day s.c. from day 21 to death, log rank test p<0.05 vs vehicle): significant increase in life span; also recorded: longer life span; also recorded: Improves Survival
- body weight ([2]; 10 or 30 mg/kg daily s.c. vs vehicle): no difference in body weight
- motor function ([3]; SMA type II and III patients): demonstrated potential to maintain motor function
- tolerability ([3]; SMA type II and III patients aged 3 to 25 years): well tolerated
